Experimental data reported in the Bradley open melting point set (2014).
Values joined by “and” are separate entries in the source; they are usually repeats but may differ in a detail not shown here. Equal entries are not always repeated.

SMILES | melting point
N#Cc1ccc(O)cc1 [4-hydroxybenzonitrile] | 112 °C
OCc1ccc(O)cc1 [4-hydroxybenzyl_alcohol] | 112 °C
O=C(O)c1ccc(I)cc1 [4-iodobenzoic acid] | 270 °C
OCc1ccc(I)cc1 [4-iodobenzyl alcohol] | 73 °C
S=C=Nc1ccc(I)cc1 [4-iodophenyl isothiocyanate] | 76 °C
N#CCc1ccc(I)cc1 [4-iodophenylacetonitrile] | 53 °C
CC(C)c1ccc(B(O)O)cc1 [4-isopropylbenzeneboronic acid] | 143 °C
CC(C)c1ccc(C(=O)O)cc1 [4-isopropylbenzoic acid] | 119 °C
CC(C)c1ccc(O)cc1 [4-isopropylphenol] | 60 °C and 61 °C
Cc1nc(-c2cccnc2)sc1C(=O)O [4-methyl-2-(3-pyridyl)thiazole-5-carboxylic acid] | 246 °C
CC(=O)CC(C)C [4-methyl-2-pentanone] | -84 °C
Cc1ccc(N)cc1[N+](=O)[O-] [4-methyl-3-nitroaniline] | 77 °C
C/C=C\C(C)C [4-methyl-cis-2-pentene] | -134 °C
C/C=C/C(C)C [4-methyl-trans-2-pentene] | -141 °C
Cc1ccc(C(=O)O)cc1 [4-methylbenzoic acid] | 180 °C and 181 °C
Cc1cc[n+]([O-])cc1C(=O)NN [4-methylpyridine-3-carbohydrazide 1-oxide] | 226 °C
CCCCCCCOc1ccc(C(=O)O)cc1 [4-n-heptyloxybenzoic acid] | 93 °C
CCCCCCCCOc1ccc(C(=O)O)cc1 [4-n-octyloxybenzoic acid] | 103 °C
CCCCCc1ccc(O)cc1 [4-n-pentylphenol] | 24 °C
Cc1ccc([N+](=O)[O-])cc1C [4-nitro-1,2-dimethylbenzene] | 31 °C
Cc1cc([N+](=O)[O-])cc[n+]1[O-] [4-nitro-2-picoline n-oxide] | 156 °C
O=[N+]([O-])c1ccc(CS(=O)(=O)Cl)cc1 [4-nitro-alpha-toluenesulfonyl chloride] | 92 °C
Nc1ccc([N+](=O)[O-])cc1 [4-nitroaniline] [listing 1 of 2 here] | 148 °C
Nc1ccc([N+](=O)[O-])cc1 [4-nitroaniline] [listing 2 of 2 here] | 148 °C
O=[N+]([O-])c1ccc(C(F)(F)F)cc1 [4-nitrobenzotrifluoride] | 40 °C
O=C(Cl)c1ccc([N+](=O)[O-])cc1 [4-nitrobenzoyl chloride] | 73 °C

SMILES | melting point
O=[N+]([O-])c1ccc(CO)cc1 [4-nitrobenzyl alcohol] | 94 °C
O=[N+]([O-])c1ccc(CBr)cc1 [4-nitrobenzyl bromide] | 99 °C
CC(=O)Oc1ccc([N+](=O)[O-])cc1 [4-nitrophenyl acetate] | 78 °C
Oc1ccc(-c2ccccc2)cc1 [4-phenylphenol] | 166 °C
Cc1cc[n+]([O-])cc1 [4-picoline-N-oxide] | 186 °C and 184 °C
CC(C)(C)c1ccc(O)c(O)c1 [4-tert-butylcatechol] | 55 °C
CC(C)(C)C1CCC(=O)CC1 [4-tert-butylcyclohexanone] | 49 °C
CC1(C)OC(=O)NC1=O [5,5-dimethyloxazolidine-2,4-dione] | 79 °C
O=C(Nc1ccc([N+](=O)[O-])cc1Cl)c1cc(Cl)ccc1O [5-Chloro-N-(2-chloro-4-nitrophenyl)-2-hydroxybenzamide] | 223 °C
CCc1nnc(N)s1 [5-Ethyl-1,3,4-thiadiazol-2-amine] | 201 °C
CC(=O)c1ccc(O)c(C(N)=O)c1 [5-acetylsalicylamide] | 221 °C
C=CCC1(c2ccccc2)C(=O)NC(=O)NC1=O [5-allyl-5-phenylbarbiturate] | 158 °C
Nc1ccc2[nH]c(C(F)(F)F)nc2c1 [5-amino-2-(trifluoromethyl)benzimidazole] | 188 °C
Nc1cc(Br)cnc1N [5-bromo-2,3-diaminopyridine] | 157 °C
O=C(O)c1ccc(Br)o1 [5-bromo-2-furoic acid] | 190 °C
O=C(Cl)c1cncc(Br)c1 [5-bromonicotinoyl chloride] | 73 °C
O=C(O)c1ccc(Br)s1 [5-bromothiophene-2-carboxylic acid] | 140 °C
CCCCC1(CC)C(=O)NC(=O)NC1=O [5-butyl-5-ethylbarbituric acid] | 128 °C
OB(O)c1cc(Cl)c(F)cc1F [5-chloro-2,4-difluorobenzeneboronic acid] | 220 °C
Oc1cc(Cl)ccc1Oc1ccc(Cl)cc1Cl [5-chloro-2-(2,4-dichlorophenoxy)phenol] | 57 °C
OCc1cc(Cl)ccc1O [5-chloro-2-hydroxybenzyl alcohol] | 86 °C
[O-][n+]1onc2cc(Cl)ccc21 [5-chlorobenzofuroxan] | 47 °C
N#Cc1ccc(B(O)O)s1 [5-cyanothiophene-2-boronic acid] | 127 °C
CCc1cnc(C(=O)O)c(C(=O)O)c1 [5-ethylpyridine-2,3-dicarboxylic acid] | 153 °C
O=c1[nH]cc(F)c(=O)[nH]1 [5-fluorouracil] | 283 °C
Cc1cc(B(O)O)sc1C=O [5-formyl-4-methylthiophene-2-boronic acid] | 119 °C

Now from value to compound:

melting point | SMILES
69 °C | Oc1ccc(Nc2ccccc2)cc1 [4-hydroxydiphenylamine]
203 °C | Oc1ccnc2ccccc12 [4-hydroxyquinoline]
170 °C | COc1ccc(B(O)O)c(C(F)(F)F)c1 [4-methoxy-2-(trifluoromethyl)benzeneboronic acid]
92 °C | COc1ccc(N=C=S)c([N+](=O)[O-])c1 [4-methoxy-2-nitrophenyl isothiocyanate]
215 °C | COc1ccc(B(O)O)cc1C [4-methoxy-3-methylbenzeneboronic acid]
184 °C | COc1ccc(C(=O)O)cc1 [4-methoxybenzoic acid]
97 °C | COc1ccc(C(=O)OC(=O)c2ccc(OC)cc2)cc1 [4-methoxybenzoic anhydride]
59 °C | COc1ccc(C#N)cc1 [4-methoxybenzonitrile]
62 °C | COc1ccc(C(=O)c2ccccc2)cc1 [4-methoxybenzophenone]
128 °C | COc1ccc(C(=O)CC#N)cc1 [4-methoxybenzoylacetonitrile]
124 °C | COc1cc(=O)oc2ccccc12 [4-methoxycoumarin]
107 °C | COc1ccc(C(O)C(=O)O)cc1 (stereo unspecified) [4-methoxymandelic acid]
87 °C | COc1ccc(CC(=O)O)cc1 [4-methoxyphenylacetic acid]
226 °C | Cc1nc(-c2ccccn2)sc1C(=O)O [4-methyl-2-(2-pyridyl)thiazole-5-carboxylic acid]
-50 °C | COc1ccc(C)cc1 [4-methylanisole]
189 °C | Cc1cc(=O)oc2cc(O)ccc12 [4-methylumbelliferone]
166 °C | O=[N+]([O-])c1ccc(O)c2ccccc12 [4-nitro-1-naphthol]
138 °C | O=[N+]([O-])c1ccc(NS(=O)(=O)c2ccccc2)cc1 [4-nitro-1-phenylsulfonamidobenzene]
55 °C | O=[N+]([O-])c1ccc(Oc2ccccc2)cc1 [4-nitrophenyl phenyl ether]
198 °C | O=C1NC(=O)c2cc([N+](=O)[O-])ccc21 [4-nitrophthalimide] [listing 1 of 2 here]
202 °C | O=C1NC(=O)c2cc([N+](=O)[O-])ccc21 [4-nitrophthalimide] [listing 2 of 2 here]
54 °C | c1ccc(-c2csc(-c3cccnc3)n2)cc1 [4-phenyl-2-(3-pyridyl)thiazole]

melting point | SMILES
83 °C | c1ccc(N=Nc2ccc(Nc3ccccc3)cc2)cc1 [4-phenylazodiphenylamine]
51 °C | O=C(O)CCCc1ccccc1 [4-phenylbutyric acid]
240 °C | O=C1CSC(=S)N1c1ccccc1 [4-thiazolidinone, 3-phenyl-2-thioxo-]
201 °C | Oc1c(Br)cc(Br)c2cccnc12 [5,7-dibromo-8-hydroxyquinoline]
181 °C | Oc1c(Cl)cc(Cl)c2cccnc12 [5,7-dichloro-8-hydroxyquinoline]
182 °C | Brc1ccccc1-c1nnn[nH]1 [5-(2-bromophenyl)-1h-tetrazole]
108 °C | Cc1ccccc1C1C=C(c2ccccc2)N=N1 (stereo unspecified) [5-(2-methylphenyl)-3-phenyl-1H-pyrazole]
140 °C | Clc1cccc(-c2nnn[nH]2)c1 [5-(3-chlorophenyl)-1h-tetrazole]
153 °C | c1ccc(Oc2cccc(-c3nnn[nH]3)c2)cc1 [5-(3-phenoxyphenyl)-1h-tetrazole]
96 °C | Cc1ccc2c(c1)no[n+]2[O-] [5-Methylbenzofurazan oxide]
58 °C | CC(=O)c1ccc2c(c1)CCO2 [5-acetyl-2,3-dihydrobenzo[b]furan]
200 °C | NC(=O)c1c(-c2ccccc2)nn(-c2ccccc2)c1N [5-amino-1,3-diphenyl-1H-pyrazole-4-carboxamide]
137 °C | N#Cc1cccc2c(N)cccc12 [5-aminonaphthalene-1-carbonitrile]
46 °C | Brc1ccc2sccc2c1 [5-bromobenzo[b]thiophene]
82 °C | O=C1Cc2cccc(Br)c21 [5-bromobicyclo[4.2.0]octa-1,3,5-trien-7-one]
168 °C | O=C(O)c1cc(Br)ccc1O [5-bromosalicylic acid]
164 °C | COc1cc(C=O)cc(Br)c1O [5-bromovanillin]
83 °C | COc1ccc(Cl)cc1N [5-chloro-o-anisidine]
101 °C | O=Cc1cc(Cl)ccc1O [5-chlorosalicylaldehyde]
109 °C | Oc1ccc2[nH]ccc2c1 [5-hydroxyindole]
86 °C | COc1ccc(I)cc1N [5-iodo-2-methoxyaniline]
48 °C | Cc1ccc(I)cc1N [5-iodo-2-methylaniline]
